In series [1] the test system is BT474 cells. The series can be described thus: Cell viability assay (Cell Titer-Glo). In kind it is cell-based. Conditions: 72 h incubation.
Procedure: (§1) PBRM-polymer-drug conjugates were evaluated for their antiproliferation properties in tumor cell lines in vitro using Cell Titer-Glo (Promega Corp). Cells were plated in black walled 96-well plate and allowed to adhere overnight at 37° C. in a humidified atmosphere of 5% CO2. SKBR3, BT474, NCI-N87 cells (HER2 expressing cells), MCF7 cells (HER2 low expressing levels cells) and JIMT1 cells (HER2 medium expression level cells) were plated at a density of 5,000 cells per well. The next day the medium was replaced with 50 μL fresh medium and 50 μL of 2× stocks of PBRM-polymer-drug conjugate, drug polymer conjugate or drug were added to appropriate wells, mixed and incubated for 72 h. Cell Titer-Glo reagent was added to the wells at room temperature and the luminescent signal was measured after 10 min using a SpectraMax M5 plate reader (Molecular Devices). Dose response curves were generated using SoftMax Pro software. IC50 values were determined from four-parameter curve fitting.
The subject of series [2] is NCI-N87 cells. The series can be described thus: Cell viability assay (Cell Titer-Glo). In kind it is cell-based. The following applies: 72 h incubation. In general terms: In ATP-based viability assays light output follows the ATP content of the culture.
Procedure: as §1
Series [3] concerns MCF7 cells. Kind of series: Cell viability assay (Cell Titer-Glo). In kind it is cell-based. Conditions: 72 h incubation; HER2 low expressing cells.
Procedure: as §1
The subject of series [4] is JIMT1 cells. The series can be described thus: Cell viability assay (Cell Titer-Glo). In kind it is cell-based. Conditions: 72 h incubation; HER2 medium expression.
Procedure: as §1
In series [5] the test system is HL-60 cells. The series can be described thus: Cell viability assay (Cell Titer-Glo). In kind it is cell-based. The following applies: 72 h incubation; CD33 expressing cells. Here is the method: Dose response curves were generated using SoftMax Pro software. IC50 values were determined from four-parameter curve fitting.
CD33 expressing cells HL-60 were passed at a density of 5,000 cells per well and treated with PBRM-polymer-drug conjugate on the same day. After 72 h incubation, the cells were analyzed using the same procedure described above.

In series [6] the test system is A431 cells. The series can be described thus: Cell viability assay (Cell Titer-Glo). In kind it is cell-based. Conditions: first of two experiments (first value in cell).
Procedure: as §1
For series [7], the system named is LLC1 cells. Kind of series: Cell viability assay (Cell Titer-Glo). Conditions: 5T4 negative control cells; second of two experiments. In kind it is cell-based.
Procedure: as §1
A short description of series [8]: Mouse tissue distribution after administration of PBRM-polymer-drug conjugates. In kind it is in vivo, mice.
Procedure: To determine the concentration of the free drug in the sample, the acidified sample was treated with acetonitrile. The free drug was extracted from the supernatant and analyzed by LC-MS/MS.
Female CB-17 SCID mice were inoculated subcutaneously with BT474 tumors (n=4 for each group).
At 48 hours post administration, the mice were sacrificed and the blood was collected by terminal cardiac.
Series [9] has as its system SKBR3 cells. Kind of series: Cell viability assay (Cell Titer-Glo). In kind it is cell-based. The following applies: 72 h incubation.
Procedure: as §1
Series [10] has as its target hErbB2 (Homo sapiens, UniProt P04626). Kind of series: Ligand binding by surface plasmon resonance (SPR). Conditions: 25° C., immobilized hErbB2. In general terms: In SPR one partner is held on a chip, and binding of the other changes the refractive index at the surface.
Procedure: The kinetic binding of the PBRM-polymer-drug conjugate to an immobilized receptor was determined by BIAcore SPR.

The values below come from US10316080B2, “Protein-polymer-drug conjugates” (priority 2013, dated 2019).

pIC50: −log10 of the molar value. Some results are limits rather than exact numbers.

By pIC50 is commonly meant −log10 of the IC50, conventionally taken in molar units. Lower therefore signals a high IC50. As for `CC[C@H](C)[C@@H]([C@@H](CC(=O)N1CCC[C@H]1[C@H](OC)[C@@H](C)C(=O)N[C@@H](Cc1ccccc1)C(=O)NCCCO)OC)N(C)C(=O)[C@@H](NC(=O)[C@H](C(C)C)N(C)C)C(C)C` [AF-HPA, auristatin F hydroxypropyl amide], the pIC50 was 9.00 in [1]; 9.38 in series [2]; 8.36 in series [3]; 9.07 in series [4]; 8.32 in series [5]; 9.15 in [6]. This compound also showed a pIC50 in series [7] of less than 7.00. Moreover, the “Metabolism of released unconjugated AF-HPA in plasma” value in [8] (in plasma) is listed as “not converted to AF”. In series [8] (in tissue), the “Metabolism of released unconjugated AF-HPA in tissue” value is “further metabolized to AF”.

With ado-trastuzumab emtansine [Kadcyla ®], the pIC50 is 8.62 in series [1]; 9.64 in series [9]; 10.05 in [2]; 7.41 in [3]; 7.74 in [4]. In addition, in series [10], the “ka (association rate constant)” value is 4.61 ± 0.2 × 10^5 M^−1s^−1. The “kd (dissociation rate constant)” value in [10] was 3.17 ± 0.9 × 10^−5 s^−1.
